Test results reported in paper PMC8333062, “Chemical tools for epichaperome-mediated interactome dysfunctions of the central nervous system” (Nature Communications, 2021).
Where “and” joins values, the source holds several entries; their conditions need not be identical. Identical values can stand only once. Like-named read-outs stand apart in the source and are kept apart here.

Tests used:
[1] = Pharmacokinetic studies in mice (LC-MS/MS); type: in vivo, B6D2F1 mice; design: key to Brain level: brain drug concentration in μM, corrected for 0.8 mL/g water space; Plasma level: unit: uM; details: for Brain level / Plasma level: listed as PU-HZ151
Procedure: Blood and brain tissue were collected following euthanasia at the scheduled time points of 5, 30 min, 1, 4, and 8 h following iv dosing and of 30 min, 1, 4, and 8 h following po dosing. Brain samples were immediately flash frozen in liquid nitrogen following collection and stored at −80 °C until analysis. Blood samples were collected into an EDTA tube by heart puncture and centrifuged at 17,000×g for 5 min at 4 °C to separate the plasma and immediately frozen on dry ice and stored at −80 °C until analysis. […] This was homogenized, extracted with methylene chloride, and evaporated on a GeneVac. […] Drug concentration (μM) in the brain was then modified to account for an average water space of 0.8 mL g^−1.

[2] = biological target: T1, 70 key receptor, enzyme, and ion channel proteins (Homo sapiens, UniProt P21728); experiment: General side effect profile (SEP) II diversity panel; type: binding; details: 1.0E-5 M
T1 construct: purchased Caliper Life Sciences (now PerkinElmer), NOVASCREEN General SEP II

[3] = biological target: T2, 70 key receptor, enzyme, and ion channel proteins (Homo sapiens, UniProt P29274); experiment: as above; type: binding; details: 1.0E-5 M
T2 construct: purchased Caliper Life Sciences (now PerkinElmer), NOVASCREEN General SEP II

[4] = biological target: T3, hERG potassium channel (IKr) (Homo sapiens, UniProt Q12809); experiment: as above; type: binding; details: human; 1.0E-5 M; read-out: Percent Inhibition: Potassium Channel, I [Kr] (hERG) (h)
T3 construct: purchased Caliper Life Sciences (now PerkinElmer), NOVASCREEN General SEP II

[5] = biological target: T4, 70 key receptor, enzyme, and ion channel proteins (Homo sapiens, UniProt P21917); experiment: as above; type: binding; details: 1.0E-5 M
T4 construct: purchased Caliper Life Sciences (now PerkinElmer), NOVASCREEN General SEP II

[6] = biological target: T5, 70 key receptor, enzyme, and ion channel proteins (Homo sapiens, UniProt P08172); experiment: as above; type: binding; details: 1.0E-5 M
T5 construct: purchased Caliper Life Sciences (now PerkinElmer), NOVASCREEN General SEP II

[7] = biological target: T6, 70 key receptor, enzyme, and ion channel proteins (Homo sapiens, UniProt P50406); experiment: as above; type: binding; details: 1.0E-5 M
T6 construct: purchased Caliper Life Sciences (now PerkinElmer), NOVASCREEN General SEP II

[8] = biological target: T7, muscarinic receptor M5 (printed "MS") (Homo sapiens, UniProt P08912); experiment: as above; type: binding; details: human; 1.0E-5 M; read-out: Percent Inhibition: Muscarinic, MS (h)
T7 construct: purchased Caliper Life Sciences (now PerkinElmer), NOVASCREEN General SEP II

[9] = biological target: T8, 70 key receptor, enzyme, and ion channel proteins (Homo sapiens, UniProt P25101); experiment: as above; type: binding; details: 1.0E-5 M
T8 construct: purchased Caliper Life Sciences (now PerkinElmer), NOVASCREEN General SEP II

[10] = biological target: T9, 70 key receptor, enzyme, and ion channel proteins (Homo sapiens, UniProt P47898); experiment: as above; type: binding; details: 1.0E-5 M
T9 construct: purchased Caliper Life Sciences (now PerkinElmer), NOVASCREEN General SEP II

[11] = biological target: 70 key receptor, enzyme, and ion channel proteins (Homo sapiens, UniProt P35372); experiment: as above; type: binding
[12] = biological target: T10, 70 key receptor, enzyme, and ion channel proteins (Homo sapiens, UniProt P49146); experiment: as above; type: binding; details: 1.0E-5 M
T10 construct: purchased Caliper Life Sciences (now PerkinElmer), NOVASCREEN General SEP II

[13] = biological target: T11, 70 key receptor, enzyme, and ion channel proteins (Homo sapiens, UniProt P17612); experiment: as above; type: binding; details: 1.0E-5 M
T11 construct: purchased Caliper Life Sciences (now PerkinElmer), NOVASCREEN General SEP II

[14] = biological target: T12, 70 key receptor, enzyme, and ion channel proteins (Homo sapiens, UniProt P21731); experiment: as above; type: binding; details: 1.0E-5 M
T12 construct: purchased Caliper Life Sciences (now PerkinElmer), NOVASCREEN General SEP II

[15] = biological target: T13, 70 key receptor, enzyme, and ion channel proteins (Homo sapiens, UniProt P17252); experiment: as above; type: binding; details: 1.0E-5 M
T13 construct: purchased Caliper Life Sciences (now PerkinElmer), NOVASCREEN General SEP II

[16] = biological target: T14, 70 key receptor, enzyme, and ion channel proteins (Homo sapiens, UniProt P07550); experiment: as above; type: binding; details: 1.0E-5 M
T14 construct: purchased Caliper Life Sciences (now PerkinElmer), NOVASCREEN General SEP II

[17] = biological target: T15, 70 key receptor, enzyme, and ion channel proteins (Homo sapiens, UniProt P20309); experiment: as above; type: binding
T15 construct: purchased Caliper Life Sciences (now PerkinElmer), NOVASCREEN General SEP II

[18] = biological target: T16, 70 key receptor, enzyme, and ion channel proteins (Homo sapiens, UniProt O76074); experiment: as above; type: binding; details: 1.0E-5 M
T16 construct: purchased Caliper Life Sciences (now PerkinElmer), NOVASCREEN General SEP II

[19] = biological target: T17, 70 key receptor, enzyme, and ion channel proteins (Homo sapiens, UniProt P08908); experiment: as above; type: binding
T17 construct: purchased Caliper Life Sciences (now PerkinElmer), NOVASCREEN General SEP II

[20] = biological target: T18, 70 key receptor, enzyme, and ion channel proteins (Homo sapiens, UniProt P34969); experiment: as above; type: binding; details: 1.0E-5 M
T18 construct: purchased Caliper Life Sciences (now PerkinElmer), NOVASCREEN General SEP II

[21] = biological target: T19, 70 key receptor, enzyme, and ion channel proteins (Homo sapiens, UniProt Q99808); experiment: as above; type: binding; details: 1.0E-5 M
T19 construct: purchased Caliper Life Sciences (now PerkinElmer), NOVASCREEN General SEP II

T18 sequence (P34969 whole entry): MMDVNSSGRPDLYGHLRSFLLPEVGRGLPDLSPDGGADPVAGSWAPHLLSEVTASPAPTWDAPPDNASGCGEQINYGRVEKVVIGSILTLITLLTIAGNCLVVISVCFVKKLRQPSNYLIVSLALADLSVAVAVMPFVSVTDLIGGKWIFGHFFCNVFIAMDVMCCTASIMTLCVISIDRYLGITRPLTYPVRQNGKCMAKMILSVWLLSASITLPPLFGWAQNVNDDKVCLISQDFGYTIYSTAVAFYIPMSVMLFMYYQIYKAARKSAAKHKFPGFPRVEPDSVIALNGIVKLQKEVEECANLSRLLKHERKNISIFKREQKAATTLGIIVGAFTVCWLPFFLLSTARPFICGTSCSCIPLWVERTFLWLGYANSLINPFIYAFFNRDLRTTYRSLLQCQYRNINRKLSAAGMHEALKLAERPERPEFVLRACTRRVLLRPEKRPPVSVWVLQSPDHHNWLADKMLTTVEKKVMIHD
T9 sequence (P47898 whole entry): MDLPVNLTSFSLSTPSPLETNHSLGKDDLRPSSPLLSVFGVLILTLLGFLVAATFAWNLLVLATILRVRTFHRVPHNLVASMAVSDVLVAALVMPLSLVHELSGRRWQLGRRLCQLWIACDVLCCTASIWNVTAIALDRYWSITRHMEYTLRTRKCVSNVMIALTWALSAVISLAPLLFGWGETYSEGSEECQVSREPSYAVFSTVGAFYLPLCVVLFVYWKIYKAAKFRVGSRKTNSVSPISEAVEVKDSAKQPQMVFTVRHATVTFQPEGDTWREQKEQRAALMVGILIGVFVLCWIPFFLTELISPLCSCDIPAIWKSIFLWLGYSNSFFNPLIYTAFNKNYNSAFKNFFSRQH
T15 sequence (P20309 whole entry): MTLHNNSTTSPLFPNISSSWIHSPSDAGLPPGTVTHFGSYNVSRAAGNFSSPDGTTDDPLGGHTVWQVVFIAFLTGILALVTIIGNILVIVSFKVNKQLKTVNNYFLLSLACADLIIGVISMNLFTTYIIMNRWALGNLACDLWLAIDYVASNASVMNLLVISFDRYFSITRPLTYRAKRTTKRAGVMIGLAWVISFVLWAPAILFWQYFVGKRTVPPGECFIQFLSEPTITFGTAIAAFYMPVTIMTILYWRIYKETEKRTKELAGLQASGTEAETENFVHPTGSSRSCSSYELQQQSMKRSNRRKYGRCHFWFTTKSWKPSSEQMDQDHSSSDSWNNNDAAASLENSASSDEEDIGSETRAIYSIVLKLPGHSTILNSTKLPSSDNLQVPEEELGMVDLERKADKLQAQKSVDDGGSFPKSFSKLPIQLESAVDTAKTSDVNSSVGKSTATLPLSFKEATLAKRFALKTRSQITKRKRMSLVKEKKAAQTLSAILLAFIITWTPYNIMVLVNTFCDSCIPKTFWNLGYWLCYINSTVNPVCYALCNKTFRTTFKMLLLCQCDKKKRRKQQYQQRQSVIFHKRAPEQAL
T1 sequence (P21728 whole entry): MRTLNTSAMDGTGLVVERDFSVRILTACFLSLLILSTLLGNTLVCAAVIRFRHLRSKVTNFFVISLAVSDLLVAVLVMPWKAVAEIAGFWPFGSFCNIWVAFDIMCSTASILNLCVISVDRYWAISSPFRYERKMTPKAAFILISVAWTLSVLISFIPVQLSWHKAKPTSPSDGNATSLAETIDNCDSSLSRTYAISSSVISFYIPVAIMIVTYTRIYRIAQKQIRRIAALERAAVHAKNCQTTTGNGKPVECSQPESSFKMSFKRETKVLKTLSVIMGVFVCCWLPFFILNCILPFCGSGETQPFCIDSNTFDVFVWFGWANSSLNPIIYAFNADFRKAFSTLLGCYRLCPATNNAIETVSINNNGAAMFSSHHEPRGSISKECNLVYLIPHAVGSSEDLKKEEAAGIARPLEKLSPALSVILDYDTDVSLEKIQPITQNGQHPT
T2 sequence (P29274 whole entry): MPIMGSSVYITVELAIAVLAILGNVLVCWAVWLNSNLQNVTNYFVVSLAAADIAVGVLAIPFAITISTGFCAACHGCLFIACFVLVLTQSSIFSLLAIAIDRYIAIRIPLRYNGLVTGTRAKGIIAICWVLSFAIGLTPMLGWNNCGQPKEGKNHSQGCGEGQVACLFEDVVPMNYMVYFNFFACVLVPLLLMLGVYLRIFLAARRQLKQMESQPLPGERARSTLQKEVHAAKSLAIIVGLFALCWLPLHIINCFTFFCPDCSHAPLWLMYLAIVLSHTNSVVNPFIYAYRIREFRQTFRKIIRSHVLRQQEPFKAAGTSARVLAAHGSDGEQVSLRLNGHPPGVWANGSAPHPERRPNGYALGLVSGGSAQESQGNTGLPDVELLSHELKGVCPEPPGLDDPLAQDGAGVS
T12 sequence (P21731 whole entry): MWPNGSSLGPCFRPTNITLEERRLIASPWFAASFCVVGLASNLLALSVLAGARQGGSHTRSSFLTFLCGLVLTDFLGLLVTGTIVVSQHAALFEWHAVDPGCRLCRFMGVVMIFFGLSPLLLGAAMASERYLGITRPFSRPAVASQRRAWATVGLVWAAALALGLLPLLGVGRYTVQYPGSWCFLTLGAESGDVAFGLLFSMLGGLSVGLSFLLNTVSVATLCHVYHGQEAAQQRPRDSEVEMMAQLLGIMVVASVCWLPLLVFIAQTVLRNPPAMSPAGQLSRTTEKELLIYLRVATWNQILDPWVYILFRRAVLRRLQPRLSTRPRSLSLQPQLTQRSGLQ
T3 sequence (Q12809 whole entry): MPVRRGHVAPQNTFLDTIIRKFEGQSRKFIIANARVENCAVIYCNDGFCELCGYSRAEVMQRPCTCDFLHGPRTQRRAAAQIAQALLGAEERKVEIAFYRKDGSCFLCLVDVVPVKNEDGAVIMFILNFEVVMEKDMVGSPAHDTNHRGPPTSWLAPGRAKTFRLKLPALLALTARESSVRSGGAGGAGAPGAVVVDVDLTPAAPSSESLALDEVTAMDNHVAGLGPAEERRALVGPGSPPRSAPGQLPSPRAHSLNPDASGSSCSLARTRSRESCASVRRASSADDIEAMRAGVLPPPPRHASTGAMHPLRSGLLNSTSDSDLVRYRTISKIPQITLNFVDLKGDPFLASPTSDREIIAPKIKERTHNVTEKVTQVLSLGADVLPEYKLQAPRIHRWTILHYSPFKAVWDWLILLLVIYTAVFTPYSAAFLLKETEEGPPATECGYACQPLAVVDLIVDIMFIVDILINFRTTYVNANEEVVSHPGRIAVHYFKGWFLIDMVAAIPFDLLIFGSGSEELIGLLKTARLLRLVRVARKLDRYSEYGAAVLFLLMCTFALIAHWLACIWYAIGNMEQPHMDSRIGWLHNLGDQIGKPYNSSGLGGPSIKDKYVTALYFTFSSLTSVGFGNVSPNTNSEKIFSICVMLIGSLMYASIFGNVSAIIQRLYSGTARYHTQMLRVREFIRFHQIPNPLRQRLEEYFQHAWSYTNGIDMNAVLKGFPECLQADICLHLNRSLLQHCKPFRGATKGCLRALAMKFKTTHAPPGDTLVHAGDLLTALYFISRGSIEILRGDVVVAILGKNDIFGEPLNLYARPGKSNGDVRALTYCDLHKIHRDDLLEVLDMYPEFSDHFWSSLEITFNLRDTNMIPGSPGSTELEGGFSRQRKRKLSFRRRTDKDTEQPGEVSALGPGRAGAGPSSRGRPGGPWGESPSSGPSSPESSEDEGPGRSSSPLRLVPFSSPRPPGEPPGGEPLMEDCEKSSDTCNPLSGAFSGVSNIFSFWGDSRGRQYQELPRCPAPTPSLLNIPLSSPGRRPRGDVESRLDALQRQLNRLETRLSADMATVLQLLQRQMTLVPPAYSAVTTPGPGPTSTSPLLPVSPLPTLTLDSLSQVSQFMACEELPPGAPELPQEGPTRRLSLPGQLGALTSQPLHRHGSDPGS
T7 sequence (P08912 whole entry): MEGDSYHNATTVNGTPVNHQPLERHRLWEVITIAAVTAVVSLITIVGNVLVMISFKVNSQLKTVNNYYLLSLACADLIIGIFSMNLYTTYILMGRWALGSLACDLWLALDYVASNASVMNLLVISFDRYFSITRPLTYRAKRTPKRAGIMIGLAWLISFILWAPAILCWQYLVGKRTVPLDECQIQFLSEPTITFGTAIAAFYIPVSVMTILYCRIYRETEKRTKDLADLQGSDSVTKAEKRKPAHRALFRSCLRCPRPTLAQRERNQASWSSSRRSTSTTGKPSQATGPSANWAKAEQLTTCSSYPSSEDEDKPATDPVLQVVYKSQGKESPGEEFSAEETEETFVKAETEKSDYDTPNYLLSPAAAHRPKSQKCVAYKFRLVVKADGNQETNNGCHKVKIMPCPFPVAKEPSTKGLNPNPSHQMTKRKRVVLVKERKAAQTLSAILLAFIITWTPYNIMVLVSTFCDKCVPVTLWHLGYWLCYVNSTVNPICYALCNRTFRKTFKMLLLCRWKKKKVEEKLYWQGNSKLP
Sequence of 70 key receptor, enzyme, and ion channel proteins (Homo sapiens, UniProt P35372) (P35372 whole entry): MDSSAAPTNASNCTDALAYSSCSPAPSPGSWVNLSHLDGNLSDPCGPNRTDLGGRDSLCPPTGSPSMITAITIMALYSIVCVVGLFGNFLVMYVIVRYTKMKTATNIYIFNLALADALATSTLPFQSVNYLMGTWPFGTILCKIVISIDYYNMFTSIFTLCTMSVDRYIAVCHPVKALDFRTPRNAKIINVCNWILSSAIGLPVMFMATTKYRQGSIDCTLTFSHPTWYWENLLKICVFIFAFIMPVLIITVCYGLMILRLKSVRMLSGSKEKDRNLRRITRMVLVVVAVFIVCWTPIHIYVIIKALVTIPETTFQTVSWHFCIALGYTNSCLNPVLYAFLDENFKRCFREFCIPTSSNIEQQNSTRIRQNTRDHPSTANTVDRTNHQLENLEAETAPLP

CC(C)(C)CNCCn1c(Sc2cc3c(cc2I)OCO3)nc2c(N)ncnc21 [Compound 85]
Brain level ([1]; time 5 min, individual animals): 15.4588 and 7.86 and 11.67 | Brain level ([1]; time 0.5 h, individual animals): 4.224 and 4.34 and 4.57 | Brain level ([1]; time 1 h, individual animals): 2.2188 and 1.91 and 1.47 | Brain level ([1]; time 4 h, individual animals): 0.07412 and 0.06266 and 0.11 and 0.04 | Brain level ([1]; time 8 h, individual animals): 0.009121 and 0.03148 and 0.03 and 0.11 | Plasma level ([1]; time 5 min, individual animals): 9.01 and 9.336 and 14.2069 and 3.61 | Plasma level ([1]; time 0.5 h, individual animals): 1.67 and 1.018 and 1.136 and 1.35 | Plasma level ([1]; time 1 h, individual animals): 0.32 and 0.7228 and 0.6745 and 0.42 | Plasma level ([1]; time 4 h, individual animals): 0.02 and 0.03223 and 0.03275 and 0.03 | Plasma level ([1]; time 8 h, individual animals): 0.01 (2×) and 0 (2×) | brain exposure relative to PU-H71 ([1]; i.v. 10 mg kg^−1): approximately ten-fold higher | Cmax ([1]; male, B6D2F1, mouse, brain and lung, iv, single i.v. 10 mg/kg): 10 to 15 µM | Kp ([1]; male, B6D2F1, mouse, brain, 10 mg kg^−1, oral administration, read-out: brain/plasma): 1.6 | concentration at 5 min ([1]; male, B6D2F1, mouse, brain, intravenous, 10 mg kg^-1, Brain, time 5 min, individual animals, read-out: Brain level): 13.5 µM | concentration at 0.5 h ([1]; male, B6D2F1, mouse, brain, intravenous, 10 mg kg^−1, Brain, time 0.5 h, individual animals, read-out: Brain level): 4.58 µM | concentration at 1 h ([1]; male, B6D2F1, mouse, brain, intravenous, 10 mg kg^−1, Brain, time 1 h, individual animals, read-out: Brain level): 2.06 µM | Kp ([1]; male, B6D2F1, mouse, brain, iv, 10 mg kg^−1, read-out: brain to plasma ratio): 2.35 | AUC ([1]; male, B6D2F1, mouse, brain, iv, i.v. 10 mg kg^−1, read-out: brain exposure, AUC): 8.25 µM·h | AUC ([1]; male, B6D2F1, mouse, plasma, iv, i.v. 10 mg kg^−1, read-out: plasma exposure, AUC): 3.52 µM·h | bioavailability ([1]; male, B6D2F1, mouse, plasma, oral, 10 mg kg^−1): 68% | Percent Inhibition: Dopamine, Dl (h) [2]: 8.03% | Percent Inhibition: Adenosine, A2A (h) [3]: 0.79% | inhibition at 10 µM [4]: -18% | Percent Inhibition: Dopamine, D4. 4 (h) [5]: 10.85% | Percent Inhibition: Muscarinic, M2 (h) [6]: 45.44% | Percent Inhibition: Serotonin, 5HT6 (h) [7]: 17.73% | inhibition at 10 µM [8]: 69.9% | Percent Inhibition: Endothelin, ET-A (h) [9]: 13.54% | Percent Inhibition: Serotonin, 5HT5A (h) [10]: 11.09% | Percent Inhibition: Opioid, Mu (h) [11]: 56.70% | Percent Inhibition: Neuropeptide, NPY2 (h) [12]: 28.79% | Percent Inhibition: Kinase, Protein, PKA (h) [13]: 0.09% | Percent Inhibition: Thromboxane AZ (h) [14]: 20.84% | Percent Inhibition: Kinase, Protein, PKCa (h) [15]: 11.20% | Percent Inhibition: Adrenergic, Beta 2 (h) [16]: 3.05% | Percent Inhibition: Muscarinic, M3 (h) [17]: 50.76% | Percent Inhibition: Phosphodiesterase, PDE5Al (h) [18]: -35.00% | Percent Inhibition: Serotonin, 5HT1A (h) [19]: -16.30% | Percent Inhibition: Serotonin, 5HT7 (h) [20]: 14.36% | Percent Inhibition: Adenosine Transporter (h) [21]: -3.54%
